Test results from PubChem BioAssay AID248 (DTP/NCI, 2004).
Values joined by “and” are separate entries in the source; they are usually repeats but may differ in a detail not shown here. Identical values can stand only once. Inconclusive results and toxic doses are left out. Cut-off read from the data, not from the text of the source: active = T/C of 150% or more; inactive = T/C below 125%.

Test system: L1210 leukemia ip in BDF1 mice, survival T/C
Test: NCI In Vivo Anticancer Drug Screen. Data for tumor model L1210 Leukemia (intraperitoneal) in B6D2F1 (BDF1) mice
Details: endpoint: mean survival time, higher = longer survival
Method in brief: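 Value reflects the ratio of survival in compound-treated mice to survival in vehicle-treated controls, with both groups carrying the same transplanted tumor.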

[1] = dose: 100.0 mg/kg/injection, schedule: Q01DX009 (ip), vehicle: saline with Tween-80
[2] = dose: 100.0 mg/kg/injection, schedule: Q04DX003 (ip), vehicle: saline with Tween-80
[3] = dose: 200.0 mg/kg/injection, schedule: Q01DX009 (ip), vehicle: saline with Tween-80
[4] = dose: 200.0 mg/kg/injection, schedule: Q04DX003 (ip), vehicle: saline with Tween-80
[5] = dose: 400.0 mg/kg/injection, schedule: Q01DX009 (ip), vehicle: saline with Tween-80
[6] = dose: 400.0 mg/kg/injection, schedule: Q04DX003 (ip), vehicle: saline with Tween-80
[7] = dose: 100.0 mg/kg/injection, schedule: Q01DX001 (ip), vehicle: saline
[8] = dose: 200.0 mg/kg/injection, schedule: Q01DX001 (ip), vehicle: saline
[9] = dose: 400.0 mg/kg/injection, schedule: Q01DX001 (ip), vehicle: saline
[10] = dose: 100.0 mg/kg/injection, schedule: Q04DX003 (ip), vehicle: saline
[11] = dose: 200.0 mg/kg/injection, schedule: Q04DX003 (ip), vehicle: saline
[12] = dose: 400.0 mg/kg/injection, schedule: Q04DX003 (ip), vehicle: saline
[13] = dose: 100.0 mg/kg/injection, schedule: Q04DX003 (ip), vehicle: Klucel (hydroxypropylcellulose) (HPC)
[14] = dose: 200.0 mg/kg/injection, schedule: Q04DX003 (ip), vehicle: Klucel (hydroxypropylcellulose) (HPC)
[15] = dose: 100.0 mg/kg/injection, schedule: Q01DX001 (ip), vehicle: Klucel (hydroxypropylcellulose) (HPC)
[16] = dose: 200.0 mg/kg/injection, schedule: Q01DX001 (ip), vehicle: Klucel (hydroxypropylcellulose) (HPC)
[17] = dose: 400.0 mg/kg/injection, schedule: Q01DX001 (ip), vehicle: Klucel (hydroxypropylcellulose) (HPC)

Measured: T/C

ClC(Cl)c1nc2ccccc2[nH]1
inactive: dose: 25.0 mg/kg/injection, schedule: Q01DX001 (ip), vehicle: Klucel (hydroxypropylcellulose) (HPC) 94 % of control | dose: 50.0 mg/kg/injection, schedule: Q04DX003 (ip), vehicle: saline 97 % of control

C/C=C/CCCCCCCC(=O)OCCCC
inactive: [1] 101 % of control | [2] 103 % of control | [3] 107 % of control | [4] 97 % of control | [5] 95 % of control | [6] 98 % of control

Cc1ccc(N2C(=O)ON(c3ccccc3)C2c2ccccc2)cc1 (stereo not drawn)
inactive: dose: 50.0 mg/kg/injection, schedule: Q01DX001 (ip), vehicle: saline 100 % of control | [7] 102 % of control | [8] 106 % of control | [9] 108 % of control

CC1=CS(=O)(=O)CC(=O)N1
inactive: [1] 101 % of control | [3] 100 % of control | [5] 97 % of control

CC(C)NP(=O)(NC(C)C)OC1CC(C)(C)N(O)C(C)(C)C1
inactive: dose: 6.25 mg/kg/injection, schedule: Q01DX001 (ip), vehicle: water 92 % of control | dose: 12.5 mg/kg/injection, schedule: Q01DX001 (ip), vehicle: water 96 % of control | dose: 25.0 mg/kg/injection, schedule: Q01DX001 (ip), vehicle: water 99 % of control | dose: 50.0 mg/kg/injection, schedule: Q01DX001 (ip), vehicle: water 94 % of control

CC(C)(C)NC(=O)Cc1ccccc1
inactive: dose: 50.0 mg/kg/injection, schedule: Q04DX003 (ip), vehicle: saline with Tween-80 97 % of control | [2] 98 % of control | [4] 103 % of control

Nc1cccc(CC(=O)Nc2ccc(S(=O)(=O)F)cc2)c1
inactive: [7] 90 % of control | [8] 106 % of control | [9] 100 % of control

NC(=O)OCCI
inactive: dose: 50.0 mg/kg/injection, schedule: Q01DX009 (ip), vehicle: saline 105 % of control | dose: 50.0 mg/kg/injection, schedule: Q04DX003 (ip), vehicle: other 101 % of control | dose: 100.0 mg/kg/injection, schedule: Q04DX003 (ip), vehicle: other 121 % of control | dose: 200.0 mg/kg/injection, schedule: Q04DX003 (ip), vehicle: other 119 % of control

CC(=O)NCC1CCCO1 (stereo not drawn)
inactive: dose: 75.0 mg/kg/injection, schedule: Q01DX009 (ip), vehicle: saline 112 % of control | [10] 105 % of control | dose: 150.0 mg/kg/injection, schedule: Q01DX009 (ip), vehicle: saline 103 % of control | [11] 108 % of control | dose: 300.0 mg/kg/injection, schedule: Q01DX009 (ip), vehicle: saline 103 % of control | [12] 106 % of control

O=Cc1ccccc1B(O)O
inactive: dose: 50.0 mg/kg/injection, schedule: Q01DX009 (ip), vehicle: Klucel (hydroxypropylcellulose) (HPC) 96 % of control and 101 % of control | dose: 100.0 mg/kg/injection, schedule: Q01DX009 (ip), vehicle: Klucel (hydroxypropylcellulose) (HPC) 97 % of control and 100 % of control | [13] 98 % of control | dose: 200.0 mg/kg/injection, schedule: Q01DX009 (ip), vehicle: Klucel (hydroxypropylcellulose) (HPC) 105 % of control and 124 % of control | [14] 86 % of control

CC(C)C(O)C1(C)CC1 (stereo not drawn)
inactive: [1] 96 % of control | [10] 106 % of control | [3] 95 % of control | [11] 107 % of control | [12] 111 % of control

O=C1NN=C(c2ccccc2)CC1c1ccccc1 (stereo not drawn)
inactive: [15] 100 % of control | [13] 101 % of control | [16] 97 % of control | [14] 96 % of control | [17] 100 % of control | dose: 400.0 mg/kg/injection, schedule: Q04DX003 (ip), vehicle: Klucel (hydroxypropylcellulose) (HPC) 93 % of control

CCOC(=O)C1(C(=O)OCC)CCC(OCC)N1C(=O)c1ccccc1[N+](=O)[O-] (stereo not drawn)
inactive: dose: 25.0 mg/kg/injection, schedule: Q04DX003 (ip), vehicle: Klucel (hydroxypropylcellulose) (HPC) 94 % of control | dose: 50.0 mg/kg/injection, schedule: Q04DX003 (ip), vehicle: Klucel (hydroxypropylcellulose) (HPC) 99 % of control | [13] 89 % of control

C#CCNC(=O)NCCCl
inactive: [1] 97 % of control | [2] 101 % of control | [3] 99 % of control | [4] 104 % of control | [5] 97 % of control | [6] 101 % of control

CCC1(C)CC=C2C(=CCC3C(C)(CO)CCCC23C)C1 (stereo not drawn)
inactive: dose: 50.0 mg/kg/injection, schedule: Q04DX002 (ip), vehicle: other 104 % of control | dose: 100.0 mg/kg/injection, schedule: Q04DX002 (ip), vehicle: other 93 % of control | dose: 200.0 mg/kg/injection, schedule: Q04DX002 (ip), vehicle: other 96 % of control

NC(=O)CNc1ccccc1C(=O)O
inactive: [15] 93 % of control | [16] 96 % of control | [17] 93 % of control

Cc1ccccc1C(O)(c1ccccc1C)C1(O)CCN(C)CC1
inactive: dose: 9.37 mg/kg/injection, schedule: Q01DX009 (ip), vehicle: saline 94 % of control | dose: 18.75 mg/kg/injection, schedule: Q01DX009 (ip), vehicle: saline 96 % of control | dose: 37.5 mg/kg/injection, schedule: Q01DX009 (ip), vehicle: saline 100 % of control

N#Cc1c(CBr)ccc2ccccc12
inactive: dose: 75.0 mg/kg/injection, schedule: Q01DX001 (ip), vehicle: saline 92 % of control

CCC[CH2][Sn]1([CH2]CCC)[O]OC(c2ccc(C)cc2)[O]1 (stereo not drawn)
inactive: dose: 12.5 mg/kg/injection, schedule: Q01DX009 (ip), vehicle: Klucel (hydroxypropylcellulose) (HPC) 101 % of control | dose: 12.5 mg/kg/injection, schedule: Q04DX002 (ip), vehicle: Klucel (hydroxypropylcellulose) (HPC) 94 % of control | dose: 25.0 mg/kg/injection, schedule: Q01DX009 (ip), vehicle: Klucel (hydroxypropylcellulose) (HPC) 119 % of control | dose: 25.0 mg/kg/injection, schedule: Q04DX002 (ip), vehicle: Klucel (hydroxypropylcellulose) (HPC) 86 % of control

c1ccc(CC(Cc2ccccc2)=[N+]2C3CCCC2CC3)cc1
inactive: [10] 92 % of control | [11] 101 % of control | [12] 111 % of control

O=S(=O)(CC(I)c1ccccc1)c1ccccc1 (stereo not drawn)
inactive: [10] 105 % of control | [11] 94 % of control | [12] 92 % of control

COc1c(C(=O)Nc2ccc(C3=NCCN3)cc2)cccc1C(=O)Nc1ccc(C2=NCCN2)cc1
inactive: dose: 15.0 mg/kg/injection, schedule: Q01DX Z (ip), vehicle: saline 95 % of control | dose: 30.0 mg/kg/injection, schedule: Q01DX Z (ip), vehicle: saline 101 % of control

Clc1ccc(/C=C/c2ccccc2)cc1
inactive: dose: 44.0 mg/kg/injection, schedule: Q01DX001 (ip), vehicle: other 96 % of control | dose: 66.0 mg/kg/injection, schedule: Q01DX001 (ip), vehicle: other 105 % of control | dose: 100.0 mg/kg/injection, schedule: Q01DX001 (ip), vehicle: other 100 % of control | dose: 150.0 mg/kg/injection, schedule: Q01DX001 (ip), vehicle: other 97 % of control | dose: 200.0 mg/kg/injection, schedule: Q01DX001 (ip), vehicle: other 100 % of control | dose: 400.0 mg/kg/injection, schedule: Q01DX001 (ip), vehicle: other 111 % of control
